{"source": "patent US10307404B1", "about": "“Ocular formulations for drug-delivery to the posterior segment of the eye” (priority 2013, dated 2019)", "key": {"[1]": {"parameters": "species or system Dutch-Belted rabbits and beagle dogs", "conditions": "Dutch-belted, beagle, rabbit, dog, in vivo", "description": "Animals that received topical ocular administration of the tromethamine-based suspension were able to tolerate up to higher level of the active agent concentration in the formulation, as compared to equimolar formulations of the sodium phosphate-based Gel Drop.\n(§1) Overall, the combination of decreased corneal exposure and corresponding improved ocular tolerability, while simultaneously maintaining or promoting drug delivery to the posterior segment target tissues, along with improved physicochemical stability, will provide greater benefit to patients compared to the ophthalmic Gel Drop formulation.\n(§2) Retinal function was normal in all test article and vehicle treated groups during full-field electroretinograms performed in rabbits."}, "KDR (VEGFR-2)": {"target": "KDR (VEGFR-2) (Homo sapiens, UniProt P35968)", "sequence (P35968 20-1356)": "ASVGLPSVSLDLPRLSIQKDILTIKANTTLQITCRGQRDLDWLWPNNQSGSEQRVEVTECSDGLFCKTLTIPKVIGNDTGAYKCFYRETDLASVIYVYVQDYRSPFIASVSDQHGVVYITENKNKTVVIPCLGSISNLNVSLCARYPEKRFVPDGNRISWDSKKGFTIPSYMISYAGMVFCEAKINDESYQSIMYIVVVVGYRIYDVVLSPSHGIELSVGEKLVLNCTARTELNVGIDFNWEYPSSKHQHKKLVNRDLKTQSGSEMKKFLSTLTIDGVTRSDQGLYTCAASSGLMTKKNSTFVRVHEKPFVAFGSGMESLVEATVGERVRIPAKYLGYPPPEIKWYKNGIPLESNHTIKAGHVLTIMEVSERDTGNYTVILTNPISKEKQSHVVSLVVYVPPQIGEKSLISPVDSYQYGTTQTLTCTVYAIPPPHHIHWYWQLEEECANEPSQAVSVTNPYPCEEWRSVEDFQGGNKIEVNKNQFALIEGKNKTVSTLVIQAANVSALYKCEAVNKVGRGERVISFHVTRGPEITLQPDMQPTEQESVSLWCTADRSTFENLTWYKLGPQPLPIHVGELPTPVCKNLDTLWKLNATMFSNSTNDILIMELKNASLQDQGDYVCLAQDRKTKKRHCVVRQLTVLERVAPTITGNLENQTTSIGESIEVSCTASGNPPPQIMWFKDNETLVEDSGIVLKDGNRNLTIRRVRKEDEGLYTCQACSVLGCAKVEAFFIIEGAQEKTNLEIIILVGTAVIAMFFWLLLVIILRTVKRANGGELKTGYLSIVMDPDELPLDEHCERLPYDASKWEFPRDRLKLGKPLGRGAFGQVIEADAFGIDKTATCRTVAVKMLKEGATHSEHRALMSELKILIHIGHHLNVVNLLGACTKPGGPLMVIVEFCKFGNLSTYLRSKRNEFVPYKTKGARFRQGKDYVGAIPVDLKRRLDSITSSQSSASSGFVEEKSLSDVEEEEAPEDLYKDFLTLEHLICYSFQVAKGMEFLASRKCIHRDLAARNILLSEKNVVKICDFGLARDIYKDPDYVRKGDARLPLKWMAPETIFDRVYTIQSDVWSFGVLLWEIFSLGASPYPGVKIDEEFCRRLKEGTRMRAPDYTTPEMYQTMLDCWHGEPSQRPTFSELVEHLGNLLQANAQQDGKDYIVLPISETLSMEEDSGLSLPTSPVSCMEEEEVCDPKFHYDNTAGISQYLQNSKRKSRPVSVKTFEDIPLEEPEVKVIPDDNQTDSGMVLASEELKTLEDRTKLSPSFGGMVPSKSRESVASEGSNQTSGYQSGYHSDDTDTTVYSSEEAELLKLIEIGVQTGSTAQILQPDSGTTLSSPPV", "assay": "In vitro inhibition of tyrosine kinases", "assay_type": "biochemical", "conditions": "300 nM (170.67 ng/mL)"}, "[2]": {"parameters": "species or system Dutch-Belted rabbits", "conditions": "rabbit, in vivo", "description": "The ocular solution of Compound-I comprising cyclodextrin was prepared and tested in different groups of animals."}, "[3]": {"assay": "Ocular toxicology study, twice daily 0.3% ophthalmic gel drop: ocular tissue concentrations, electroretinograms", "assay_type": "in vivo, Dutch-Belted rabbits", "conditions": "0.3% gel drop formulations with and without benzylalkonium chloride", "description": "as §2"}, "[4]": {"assay": "Corneal and choroid exposure compared between formulations (topical ocular dosing)", "assay_type": "in vivo, Dutch-belted rabbits", "description": "as §1"}, "[5]": {"assay": "5-day PK, topical ocular Compound-I in hydroxypropyl-β-cyclodextrin solutions, 30 μL bilateral dose", "assay_type": "in vivo, Dutch-Belted rabbits", "conditions": "for Average Concentration, Central Retina: LLOQ = 0.0218 μM", "description": "All doses were administered with ±1 hour of the scheduled dose time, except on day 1 for Groups 1, 4, and 10. The first dose on day 1 was administered at 12:00 PM, and the second dose (for Groups 1 and 10) was administered approximately 4 hours after. This was due to delayed arrival of formulations. All other dosing for these groups was as scheduled. On day 1, Groups 4-8, and 11-12 received one dose (q.d.) for four (4) days. On days 1 through 4, Groups 1-3, and 9-10 received b.i.d. dosing approximately 8 hours apart for four (4) days.\nOcular sampling occurred one hour following the first daily dose on day 5 for all groups, except Groups 5b and 6b, where ocular sampling occurred 24 hours after the first daily dose on day 4.\nBlood samples for plasma collection were obtained just prior to scheduled euthanasia for all animals. […] Cornea, central retina, and central choroid samples from groups 1-12 were assayed. Aqueous humor, peripheral retina, and peripheral choroid samples were not assayed."}, "HUVECs": {"tested_on": "HUVECs", "assay": "Inhibition of VEGF-stimulated mitogenesis in HUVECs", "assay_type": "cell-based", "conditions": "Homo sapiens, HUVEC"}}, "note": "Where “and” joins values, the source holds several entries; their conditions need not be identical. Identical values can stand only once."}
{"smiles": "Cl.NC(=O)c1c(OCc2c(F)cc(Br)cc2F)nsc1NC(=O)NCCCCN1CCCC1", "note": "[Compound-I, 3-[(4-bromo-2,6-difluorophenyl)methoxy]-5-[[[[4-(1-pyrrolidinyl)butyl]amino]carbonyl]amino]-4-isothiazolecarboxamide hydrochloride]", "values": [{"measurement": "cornea concentration above which ocular side effects were more consistently observed", "setting": "[1]", "value": "exceeded 100 μM"}, {"measurement": "VEGFR-2 kinase function", "setting": "KDR (VEGFR-2)", "value": "completely inhibited"}, {"measurement": "tolerability", "setting": "[2]", "value": "well-tolerated"}, {"measurement": "Mean ocular tissue concentration, peripheral retina", "setting": "[3]", "value": "0.150 to 0.3091", "unit": "µM"}, {"measurement": "reduction in corneal concentrations versus equimolar Gel Drop", "setting": "[4]; cyclodextrin-based solutions, 1 to 30 days dosing, Dutch-belted rabbits", "value": "~10", "unit": "×"}, {"measurement": "clinical or histopathologic findings", "setting": "[4]; ophthalmic solution, repeated topical ocular dosing, rabbits and dogs", "value": "free of untoward clinical or histopathologic findings"}, {"measurement": "target therapeutic exposure in the central choroid versus equimolar ophthalmic gel drop", "setting": "[4]; ophthalmic solution, topical ocular dosing", "value": "equal or higher"}, {"measurement": "corneal concentrations, Gel Drop compared to Tris-based suspensions", "setting": "[4]; rabbit, in vivo", "value": "fifty-fold to hundred-fold higher"}, {"measurement": "corneal concentrations, Gel Drop compared to cyclodextrin based solution", "setting": "[4]; rabbit, in vivo", "value": "five-fold to fifteen-fold higher"}, {"measurement": "reduction of exposure (cornea)", "setting": "[4]; suspension-based and cyclodextrin formulations", "value": "10-100 ×"}, {"measurement": "Average Concentration, Central Choroid", "setting": "[5]; Group 5a q.d., 1 hr after first daily dose on day 5, n = 1", "value": "*0.199 μM"}, {"measurement": "Average Concentration, Central Retina", "setting": "[5]; Group 5b q.d., 24 hr after first daily dose on day 4", "value": "<LLOQ"}, {"measurement": "Average Concentration, Central Retina", "setting": "[5]; Group 6b q.d., 24 hr after first daily dose on day 4", "value": "<LLOQ"}, {"measurement": "Average Concentration, Central Choroid", "setting": "[5]; Group 6b q.d., 24 hr after first daily dose on day 4, n = 1", "value": "*0.218 μM"}, {"measurement": "Average Concentration, Central Choroid", "setting": "[5]; Group 7 q.d., 1 hr after first daily dose on day 5, LLOQ = 0.174 μM", "value": "<LLOQ"}, {"measurement": "Average Concentration, Central Choroid", "setting": "[5]; Group 8 q.d., 1 hr after first daily dose on day 5, n = 1", "value": "*0.210 μM"}, {"measurement": "Average Concentration, Central Choroid", "setting": "[5]; Group 9 b.i.d., 1 hr after first daily dose on day 5, n = 1", "value": "*0.287 μM"}, {"measurement": "IC50", "setting": "HUVECs", "value": "14.1 nM and 0.008 µg/mL"}]}
